Values of other authors, collected in US20100022600A1, “METHODS AND COMPOSITIONS FOR TREATING CENTRAL NERVOUS SYSTEM TUMORS” (priority 2006, published 2010).

Columns and labels:
acyl-CoA synthetase = details: PPARγ-independent; J Biol Chem 2001; 276: 33736-40; cited from earlier work
cholesterol biosynthesis = details: PPARγ-independent; Diabetes 1999; 48: 254-60; cited from earlier work
C6 cells = details: J Neurochem 2002; 81: 1052-60; cited from earlier work
BT4Cn rat glioma cells = details: Carcinogenesis 2001; 22: 1747-55; cited from earlier work

Compound: Cc1c(C)c2c(c(C)c1O)CCC(C)(COc1ccc(CC3SC(=O)NC3=O)cc1)O2 (single isomer, unassigned; (+)) [troglitazone, (+)-5 [[4-[(3,4-dihydro-6-hydroxy-2,5,7,8-tetramethyl-2H-1-benzopyran-2-yl)methoxy]phenyl]methyl]-2,4thiazolidinedione]
- acyl-CoA synthetase (acyl-CoA synthetase): inhibit
- cholesterol biosynthesis (cholesterol biosynthesis): inhibit

Compound: CC1(COc2ccc(CC3SC(=O)NC3=O)cc2)CCCCC1 (stereo not shown) [ciglitazone, 5-[4-[(1-methylcyclohexyl)methoxy]benzyl]thiazolidine-2,4-dione]
- redifferentiation of C6 cells (C6 cells): increased redifferentiation

Compound: O=C(Nc1ccccc1)c1cc([N+](=O)[O-])ccc1Cl [GW9662]
- effect on growth inhibition by PPARγ agonists (BT4Cn rat glioma cells): abolished
